Data as given in US12091411B2, “IRAK degraders and uses thereof” (Kymera Therapeutics, Inc., priority 2022, dated 2024).
Like-named read-outs stand apart in the source and are kept apart here.

Target: T1, IRAK4 (Homo sapiens, UniProt Q9NWZ3)
T1 construct: Degradation of IRAK4 in OCI-LY10 was quantitatively measured using Meso Scale Discovery technology; endogenous in cells; host or cells: OCI-LY10
T1 sequence (Q9NWZ3 1-460): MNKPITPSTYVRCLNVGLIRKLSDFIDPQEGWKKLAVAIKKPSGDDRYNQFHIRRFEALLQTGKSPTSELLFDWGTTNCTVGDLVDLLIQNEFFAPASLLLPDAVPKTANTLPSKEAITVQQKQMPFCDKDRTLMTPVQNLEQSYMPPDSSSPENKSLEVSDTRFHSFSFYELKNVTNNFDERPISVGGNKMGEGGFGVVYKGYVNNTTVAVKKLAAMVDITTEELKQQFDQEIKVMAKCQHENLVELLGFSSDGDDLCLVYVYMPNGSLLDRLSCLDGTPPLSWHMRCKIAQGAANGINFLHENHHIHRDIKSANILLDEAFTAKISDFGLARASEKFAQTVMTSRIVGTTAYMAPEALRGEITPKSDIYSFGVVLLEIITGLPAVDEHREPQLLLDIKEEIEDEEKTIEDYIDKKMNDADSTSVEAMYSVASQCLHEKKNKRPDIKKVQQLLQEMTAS
Assay: IRAK4 MSD Degradation in OCI-LY10
Assay type: cell-based
Settings: OCI-LY10 cells, MSD
Outline: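 DC50, from a three-parameter logistic fit and reported as letter bins A (<0.01 μM), B, C, D (>0.2 μM or not tested), reflects IRAK4 loss measured by MSD electrochemiluminescence in OCI-LY10 lysates. Treatment: 8 doses, 1:3 steps, top 1 to 10 μM, 4 to 24 h, 37 °C.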

[1] = 4 hrs incubation, read-out: IRAK4 degradation in OCI-LY10 at 4 hrs: DC50
[2] = 24 hrs incubation, read-out: IRAK4 degradation in OCI-LY10 at 24 hrs: DC50

Row | Structure (SMILES) | DC50 [1] [nM] | DC50 [2] [nM]
1 | Cc1ccc(-c2nn([C@H]3CC[C@H](CN4CCC(OCC#Cc5cccc6c5n(C)c(=O)n6C5CCC(=O)NC5=O)CC4)CC3)cc2NC(=O)c2cnn3cccnc23)nc1 (stereo partly shown) [I-170] | > 200 | 10 to 100
2 | Cc1ccc(-c2nn([C@H]3CC[C@H](CN4CCC(OCC#Cc5cccc6c5n(C)c(=O)n6C5CCC(=O)NC5=O)CC4)CC3)cc2NC(=O)c2cnn3cccnc23)c(F)c1 (stereo partly shown) [I-171] | > 200 | 10 to 100
3 | Cc1ccc(-c2nn([C@H]3CC[C@H](CN4CCC(OCC#Cc5cccc6c5n(C)c(=O)n6C5CCC(=O)NC5=O)CC4)CC3)cc2NC(=O)c2cnn3cccnc23)cc1 (stereo partly shown) [I-172] | > 200 | 10 to 100
4 | Cc1ccc(-c2nn([C@H]3CC[C@H](CN4CCC(OCC#Cc5cccc6c5n(C)c(=O)n6C5CCC(=O)NC5=O)CC4)CC3)cc2NC(=O)c2cnn3cccnc23)nc1 (stereo partly shown) [I-173] | > 200 | 10 to 100
5 | Cn1c(=O)n(C2CCC(=O)NC2=O)c2cccc(C#CCOC3CCN(CC4CCN(c5ccc(C(F)F)c(NC(=O)c6cnn7ccc(N8C[C@H]9C[C@@H]8CO9)nc67)c5)CC4)CC3)c21 (stereo partly shown) [I-176] | > 200 | > 200
6 | COc1ncc([C@H]2CC[C@H](CN3CCC(OCC#Cc4cccc5c4n(C)c(=O)n5C4CCC(=O)NC4=O)CC3)CC2)cc1NC(=O)c1cnn2ccc(N3C[C@H]4C[C@@H]3CO4)nc12 (stereo partly shown) [I-180] | > 200 | > 200
7 | COc1nc([C@H]2CC[C@H](CN3CCC(OCC#Cc4cccc5c4n(C)c(=O)n5C4CCC(=O)NC4=O)CC3)CC2)ccc1NC(=O)c1cnn2ccc(N3C[C@H]4C[C@@H]3CO4)nc12 (stereo partly shown) [I-183] | > 200 | > 200
8 | COc1cc2nn([C@H]3CC[C@H](CN4CCC5(CC4)CCN(c4cccc6c4n(C)c(=O)n6C4CCC(=O)NC4=O)CC5)CC3)cc2cc1NC(=O)c1cncc(C(C)(C)C#N)c1 (stereo partly shown) [I-185] | > 200 | > 200
9 | Cn1c(=O)n(C2CCC(=O)NC2=O)c2cccc(N3CCC4(CCN(C[C@H]5CC[C@H](n6cc7cc(NC(=O)c8cncc(C#N)c8)c(F)cc7n6)CC5)CC4)CC3)c21 (stereo partly shown) [I-186] | > 200 | > 200
10 | Cn1c(=O)n(C2CCC(=O)NC2=O)c2cccc(N3CCC4(CCN(C[C@H]5CC[C@H](n6cc7cc(NC(=O)c8cncc(C#N)c8)c(C(F)F)cc7n6)CC5)CC4)CC3)c21 (stereo partly shown) [I-187] | > 200 | > 200
11 | Cn1c(=O)n(C2CCC(=O)NC2=O)c2cccc(N3CCC4(CCN(C[C@H]5CC[C@@H](n6cc(NC(=O)c7cnn8ccc(N9CC%10C[C@@H]9CO%10)nc78)c(C(F)F)n6)CC5)CC4)CC3)c21 (stereo partly shown) [I-188] | < 10 | > 200
12 | COCc1cncc(C(=O)Nc2cc3cn([C@H]4CC[C@H](CN5CCC6(CC5)CCN(c5cccc7c5n(C)c(=O)n7C5CCC(=O)NC5=O)CC6)CC4)nc3cc2OC)c1 (stereo partly shown) [I-191] | 10 to 100 | > 200
13 | CC([C@H]1CC[C@H](n2cc(NC(=O)c3cnn4ccc(C5CC6C[C@@H]5CO6)nc34)c(C(F)F)n2)CC1)N1CCC(OCC#Cc2cccc3c2n(C)c(=O)n3C2CCC(=O)NC2=O)CC1 (stereo partly shown) [I-192] | > 200 | > 200
14 | CC([C@H]1CC[C@H](n2cc(NC(=O)c3cnn4ccc(N5C[C@H]6C[C@@H]5CO6)nc34)c(C(F)F)n2)CC1)N1CCN(CC#Cc2cccc3c2n(C)c(=O)n3C2CCC(=O)NC2=O)CC1 (stereo partly shown) [I-194] | > 200 | > 200
15 | CC([C@H]1CC[C@H](n2cc(NC(=O)c3cnn4ccc(N5C[C@H]6C[C@@H]5CO6)nc34)c(C(F)F)n2)CC1)N1CCN(CCCc2cccc3c2n(C)c(=O)n3C2CCC(=O)NC2=O)CC1 (stereo partly shown) [I-195] | > 200 | > 200
16 | Cn1c(=O)n(C2CCC(=O)NC2=O)c2cccc(C#CCN3CCN(C(C#N)[C@H]4CC[C@H](n5cc(NC(=O)c6cnn7ccc(N8C[C@H]9C[C@@H]8CO9)nc67)c(C(F)F)n5)CC4)CC3)c21 (stereo partly shown) [I-196] | > 200 | 10 to 100
17 | Cn1c(=O)n(C2CCC(=O)NC2=O)c2cccc(CCCN3CCN(C(C#N)[C@H]4CC[C@H](n5cc(NC(=O)c6cnn7ccc(N8C[C@H]9C[C@@H]8CO9)nc67)c(C(F)F)n5)CC4)CC3)c21 (stereo partly shown) [I-197] | 10 to 100 | > 200
18 | Cn1c(=O)n(C2CCC(=O)NC2=O)c2cccc(N3CCN([C@H]4CC[C@H](n5cc(NC(=O)c6cnn7ccc(N8C[C@H]9C[C@@H]8CO9)nc67)c(C(F)F)n5)CC4)CC3)c21 (stereo partly shown) [I-200] | 10 to 100 | > 200
19 | Cn1c(=O)n(C2CCC(=O)NC2=O)c2cccc(C3CCN(C4CCN([C@H]5CC[C@H](n6cc(NC(=O)c7cnn8ccc(N9C[C@H]%10C[C@@H]9CO%10)nc78)c(C(F)F)n6)CC5)CC4)CC3)c21 (stereo partly shown) [I-202] | < 10 | > 200
20 | Cn1c(=O)n(C2CCC(=O)NC2=O)c2cccc(N3CCC(N4CCN([C@H]5CC[C@H](n6cc(NC(=O)c7cnn8ccc(N9C[C@H]%10C[C@@H]9CO%10)nc78)c(C(F)F)n6)CC5)CC4)CC3)c21 (stereo partly shown) [I-203] | > 200 | > 200
21 | COc1cc2nc([C@H]3CC[C@H](CN4CCC5(CC4)CCN(c4cccc6c4n(C)c(=O)n6C4CCC(=O)NC4=O)CC5)CC3)ccc2cc1NC(=O)c1cncc(C#N)c1 (stereo partly shown) [I-204] | < 10 | > 200

Now from value to compound:

Row | DC50 [1] [nM] | DC50 [2] [nM] | Structure (SMILES)
22 | > 200 | > 200 | COc1nn([C@H]2CC[C@H](CN3CCC(OCC#Cc4cccc5c4n(C)c(=O)n5C4CCC(=O)NC4=O)CC3)CC2)cc1NC(=O)c1cnn2ccc(N3C[C@H]4C[C@@H]3CO4)nc12 (stereo partly shown) [I-169]
23 | > 200 | > 200 | Cn1c(=O)n(C2CCC(=O)NC2=O)c2cccc(C#CCOC3CCN(C[C@H]4CC[C@H](n5cc(NC(=O)c6cnn7ccc(N8C[C@H]9C[C@@H]8CO9)nc67)c(C(C)(C)O)n5)CC4)CC3)c21 (stereo partly shown) [I-174]
24 | > 200 | > 200 | Cn1c(=O)n(C2CCC(=O)NC2=O)c2cccc(C#CCOC3CCN(C[C@H]4CC[C@H](c5ccc(C(F)F)c(NC(=O)c6cnn7ccc(N8C[C@H]9C[C@@H]8CO9)nc67)c5)CC4)CC3)c21 (stereo partly shown) [I-175]
25 | > 200 | > 200 | COc1ccc([C@H]2CC[C@H](CN3CCC(OCC#Cc4cccc5c4n(C)c(=O)n5C4CCC(=O)NC4=O)CC3)CC2)cc1NC(=O)c1cnn2ccc(N3C[C@H]4C[C@@H]3CO4)nc12 (stereo partly shown) [I-177]
26 | > 200 | > 200 | Cn1c(=O)n(C2CCC(=O)NC2=O)c2cccc(C#CCOC3CCN(C[C@H]4CC[C@H](c5cnc(C(F)F)c(NC(=O)c6cnn7ccc(N8C[C@H]9C[C@@H]8CO9)nc67)c5)CC4)CC3)c21 (stereo partly shown) [I-178]
27 | > 200 | > 200 | Cn1c(=O)n(C2CCC(=O)NC2=O)c2cccc(C#CCOC3CCN(CC4CCN(c5cnc(C(F)F)c(NC(=O)c6cnn7ccc(N8C[C@H]9C[C@@H]8CO9)nc67)c5)CC4)CC3)c21 (stereo partly shown) [I-179]
28 | > 200 | > 200 | Cn1c(=O)n(C2CCC(=O)NC2=O)c2cccc(C#CCOC3CCN(C[C@H]4CC[C@H](c5ccc(NC(=O)c6cnn7ccc(N8C[C@H]9C[C@@H]8CO9)nc67)c(C(F)F)n5)CC4)CC3)c21 (stereo partly shown) [I-181]
29 | > 200 | > 200 | Cn1c(=O)n(C2CCC(=O)NC2=O)c2cccc(C#CCOC3CCN(C[C@H]4CC[C@H](c5ccc(NC(=O)c6cnn7ccc(N8C[C@H]9C[C@@H]8CO9)nc67)c(C(F)F)c5)CC4)CC3)c21 (stereo partly shown) [I-182]
30 | > 200 | > 200 | COc1cc([C@H]2CC[C@H](CN3CCC(OCC#Cc4cccc5c4n(C)c(=O)n5C4CCC(=O)NC4=O)CC3)CC2)ccc1NC(=O)c1cnn2ccc(N3C[C@H]4C[C@@H]3CO4)nc12 (stereo partly shown) [I-184]
31 | 10 to 100 | > 200 | Cn1c(=O)n(C2CCC(=O)NC2=O)c2cccc(N3CCN(CC4CCC(n5cc(NC(=O)c6cnn7ccc(N8CC9C[C@@H]8CO9)nc67)c(C(F)F)n5)CC4)CC3)c21 (stereo partly shown) [I-189]
32 | 10 to 100 | > 200 | Cn1c(=O)n(C2CCC(=O)NC2=O)c2cccc(CN3CCN(C[C@H]4CC[C@H](n5cc(NC(=O)c6cnn7ccc(N8CC9C[C@@H]8CO9)nc67)c(C(F)F)n5)CC4)CC3)c21 (stereo partly shown) [I-190]
33 | > 200 | > 200 | Cn1c(=O)n(C2CCC(=O)NC2=O)c2cccc(C#CCOC3CCN(C(C#N)[C@H]4CC[C@H](n5cc(NC(=O)c6cnn7ccc(N8C[C@H]9C[C@@H]8CO9)nc67)c(C(F)F)n5)CC4)CC3)c21 (stereo partly drawn) [I-193, N-[1-[4-[cyano-[4-[3-[1-(2,6-dioxo-3-piperidyl)-3-methyl-2-oxo-benzimidazol-4-yl]prop-2-ynoxy]-1-piperidyl]methyl]cyclohexyl]-3-(difluoromethyl)pyrazol-4-yl]-5-[(1R,4R)-2-oxa-5-azabicyclo[2.2.1]heptan-5-yl]pyrazolo[1,5-a]pyrimidine-3-carboxamide]
34 | 10 to 100 | 10 to 100 | O=C1CCC(c2ccc(C#CCOC3CCN(C[C@H]4CC[C@H](n5cc(NC(=O)c6cnn7ccc(N8C[C@H]9C[C@@H]8CO9)nc67)c(C(F)F)n5)CC4)CC3)cc2)C(=O)N1 (stereo partly shown) [I-198]
35 | > 200 | 10 to 100 | O=C1CCC(c2cccc(C#CCOC3CCN(C[C@H]4CC[C@H](n5cc(NC(=O)c6cnn7ccc(N8C[C@H]9C[C@@H]8CO9)nc67)c(C(F)F)n5)CC4)CC3)c2)C(=O)N1 (stereo partly shown) [I-199]
